In PubChem BioAssay AID256 (DTP/NCI, 2004):
Toxic doses and inconclusive results are not listed. How the source made its calls: active means survival T/C of 150% or more; inactive means T/C below 125% in these data.

System: CD2F1 mice, L1210 leukemia ip, survival T/C
Assay: NCI In Vivo Anticancer Drug Screen. Data for tumor model L1210 Leukemia (intraperitoneal) in CD2F1 (CDF1) mice
Conditions: endpoint: mean survival time, schedule: Q01DX001 (ip), vehicle: saline with Tween-80, higher = longer survival
Outline: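 Ratio T/C, where T is the treated-group value and C the vehicle-dosed control value, from mice implanted with a transplantable tumor.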

Measured: T/C

OC1(c2ccccc2)c2cscc2C(O)(c2ccccc2)c2c(Cl)sc(Cl)c21 (stereo not drawn)
inactive: dose: 6.25 mg/kg/injection 100 % of control | dose: 12.5 mg/kg/injection 95 % of control | dose: 25.0 mg/kg/injection 88 % of control
